Experimental data from publication PMC9917632, “Structural and Biochemical Analyses of the Butanol Dehydrogenase from Fusobacterium nucleatum” (International Journal of Molecular Sciences, 2023).

Assays:
[1] = target: T1, FnYqdH (Fusobacterium nucleatum YqdH, butanol dehydrogenase) (Fusobacterium nucleatum, UniProt Q8R612); assay: X-ray crystal structure, […] Å, soaked crystal; settings: soaked 1 min with 10 mM NADH and 2 mM Co2+; nucleotide-binding domain; open conformation
T1 construct: gene FN1415; recombinant, yqdH cloned NcoI/XhoI in pPRO-EX-HTA, expressed in Escherichia coli; dimer; 384 residues modelled (CD to residue 385)
T1 sequence (Q8R612 1-385): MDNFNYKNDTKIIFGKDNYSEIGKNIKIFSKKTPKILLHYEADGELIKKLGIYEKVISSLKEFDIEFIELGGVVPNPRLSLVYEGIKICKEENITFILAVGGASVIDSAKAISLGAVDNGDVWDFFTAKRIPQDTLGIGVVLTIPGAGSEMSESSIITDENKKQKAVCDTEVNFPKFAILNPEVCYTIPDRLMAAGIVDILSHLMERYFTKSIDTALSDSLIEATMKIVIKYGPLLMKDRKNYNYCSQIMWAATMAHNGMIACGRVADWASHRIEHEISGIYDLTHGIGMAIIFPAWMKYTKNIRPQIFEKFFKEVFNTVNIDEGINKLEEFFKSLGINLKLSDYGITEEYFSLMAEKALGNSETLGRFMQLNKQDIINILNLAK

[2] = target: T1, FnYqdH (Fusobacterium nucleatum YqdH, butanol dehydrogenase); assay: NADH consumption at […] nm, double reciprocal plot; format: biochemical; settings: 0.1-0.5 mM NADH; co-substrate butanal; Tris-HCl pH 6.0, CoSO4, 35 °C (standard assay)
TmBDH = target: T2, TmBDH (Thermotoga maritima, UniProt Q9WZS7); assay: NADH consumption, spectrophotometric; format: biochemical; settings: metal-free enzyme reconstituted with 2 mM Zn2+, Co2+, Ni2+ or Fe3+; co-substrate butanal
T2 construct: gene TM_0820; purified protein, EDTA-treated (metal-free) then metal-reconstituted
T2 sequence (Q9WZS7 1-395): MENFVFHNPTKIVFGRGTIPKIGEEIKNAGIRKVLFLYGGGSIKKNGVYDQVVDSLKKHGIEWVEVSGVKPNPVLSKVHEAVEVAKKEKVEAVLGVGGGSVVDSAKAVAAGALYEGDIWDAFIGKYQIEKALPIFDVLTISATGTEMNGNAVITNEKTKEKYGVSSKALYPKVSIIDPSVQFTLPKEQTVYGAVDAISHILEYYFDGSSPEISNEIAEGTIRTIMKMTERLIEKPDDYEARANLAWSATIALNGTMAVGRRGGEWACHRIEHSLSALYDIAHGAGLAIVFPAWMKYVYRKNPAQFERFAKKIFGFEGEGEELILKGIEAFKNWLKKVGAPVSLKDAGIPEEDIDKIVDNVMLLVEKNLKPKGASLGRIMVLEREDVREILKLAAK

[3] = target: Fusobacterium nucleatum YqdH (butanol dehydrogenase) (Fusobacterium nucleatum); assay: SEC; purified FnYqdH (500 uL of 1 mg/mL) on Superdex 200 10/300 GL; 20 mM Tris-HCl pH 8.0, 150 mM NaCl, 2 mM BME; 0.5 mL/min
[4] = target: T1, FnYqdH (Fusobacterium nucleatum YqdH, butanol dehydrogenase); assay: NADPH consumption at […] nm, double reciprocal plot; format: biochemical; settings: 0.1-1 mM NADPH; co-substrate butanal; Tris-HCl pH 6.0, CoSO4, 35 °C (standard assay)

NC(=O)C1=CN([C@@H]2O[C@H](COP(=O)(O)OP(=O)(O)OC[C@H]3O[C@@H](n4cnc5c(N)ncnc54)[C@H](O)[C@@H]3O)[C@@H](O)[C@H]2O)C=CC1 [NADH]
X-ray crystal structure, 2.72 Å, soaked crystal [1]: an electron-density map corresponding to NADH and metal ions was clearly observed
apparent Km [2]: the apparent Km and Vmax values were measured with a purified protein
NADH consumption, spectrophotometric (TmBDH): monitoring NADH consumption for five different metal ions

Fusobacterium nucleatum YqdH (butanol dehydrogenase) (enzyme)
stoichiometry N [3]: 2

NC(=O)C1=CN([C@@H]2O[C@H](COP(=O)(O)OP(=O)(O)OC[C@H]3O[C@@H](n4cnc5c(N)ncnc54)[C@H](OP(=O)(O)O)[C@@H]3O)[C@@H](O)[C@H]2O)C=CC1 [NADPH]
apparent Km [4]: NADH is preferred over NADPH in terms of FnYqdH activity (Figure S2)
